Experiment [1] deals with panel of 20 taste testers. Put plainly: Sensory testing for salt enhancement (taste panel, sodium chloride solution). On the set-up: key to Difference (salt enhancement effect relative to the same salt solution without the enhancer): None: No effect; +: Weak; ++: Moderate; +++: Strong. It counts as in vivo. The method, then: Compounds 101 and 130 were evaluated for their salt-enhancement effects by a panel of 20 taste testers. The test compounds were added to solutions (0.25 wt %) sodium chloride, and tested for their sale enhancement effect relative to the same salt solution without the enhancer.

A short description of experiment [2]: Sensory testing for cooling/burning (tasting of compound in water solution). It is filed as in vivo. Conditions: for taste attributes: 20 mg/L in water solution. The method, then: At 2 mg/L, Compound 130 was tasteless.
At 39.2 mg/L, the tingling effect was weak. […] At 2 mg/L, Compound 101 was tasteless.

The mark [3] stands for this setting: 10 ppm test compound in 0.25 wt % sodium chloride solution.
The mark [4] stands for this setting: 20 ppm test compound in 0.25 wt % sodium chloride solution.

Consider two compounds from US20230345986A1, “CONJUGATED DIYNES AND THEIR USE AS FLAVOR MODIFIERS” (Firmenich SA, priority 2020, published 2023).

Molecules are shown by their SMILES.

As for `C#CC#CCCCCC(=O)N1CCCCC1` [Compound 101, nona-6,8-diynoic acid piperidide], the “Difference (salt enhancement effect relative to the same salt solution without the enhancer)” value in experiment [1] (setting [3]) is given as “None”; in experiment [1] (setting [4]), “+”. The “Remarks (salt enhancement effect)” value in experiment [1] (setting [3]) was “No effect”; in experiment [1] (setting [4]) it was “Weak”. Besides, the taste description entry in experiment [2] (2 mg/L in water solution) is “tasteless”; in experiment [2] (125 mg/L in water solution), “tingling (mid intensity), bitter, metallic, astringent and triggered an uncomfortable feeling in the throat when swallowed”. Besides, the taste attributes entry in experiment [2] is “astringent, bitter, herbal, earthy and green”. Moreover, in experiment [2] (39.2 mg/L in water solution), the tingling effect result is listed as “weak”.
Regarding `C#CC#CCC/C=C/C=C/C(=O)N1CCCCC1` [Compound 130, (E,E)-2,4-undecadien-8,10-diynoic acid piperidide], the “Difference (salt enhancement effect relative to the same salt solution without the enhancer)” value in experiment [1] (setting [3]) and in experiment [1] (setting [4]) was “++” each time. The “Remarks (salt enhancement effect)” value in experiment [1] (setting [3]) and in experiment [1] (setting [4]) was “Moderate” in each case. Besides, the taste description entry in experiment [2] (2 mg/L in water solution) is “tasteless”; in experiment [2] (42 mg/L in water solution), “long-lasting warm, hot, weak cooling after taste, as well as bitter and astringent”. For the same compound, the taste attributes entry in experiment [2] was “astringent, bitter, salty, earthy, herbal, and cooling, but no warm and hot sensation was perceived”.
